Data reported in PubChem BioAssay (NCI).
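Interpolation was linear, between the two tested concentrations surrounding the appropriate level; five concentrations were tested over 48 hours in 96-well plates. TGI: concentration producing complete growth inhibition.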

Columns and labels:
Assay in all cases: growth of human tumour cells (NCI), 48 h
HOP-62 NSCLC = tested on: HOP-62 NSCLC
IGROV1 ovarian = tested on: IGROV1 ovarian
SK-MEL-2 melanoma = tested on: SK-MEL-2 melanoma
NCI-H23 lung = tested on: NCI-H23 lung
EKVX NSCLC = tested on: EKVX NSCLC
SNB-78 CNS = tested on: SNB-78 CNS
A549 NSCLC = tested on: A549 NSCLC
SN12C renal = tested on: SN12C renal
NCI/ADR-RES ovarian = tested on: NCI/ADR-RES ovarian
K-562 leukemia = tested on: K-562 leukemia
MDA-MB-435 = tested on: MDA-MB-435
786-0 renal = tested on: 786-0 renal
SK-MEL-28 melanoma = tested on: SK-MEL-28 melanoma
HS 578T breast = tested on: HS 578T breast
SK-OV-3 ovarian = tested on: SK-OV-3 ovarian
KM20L2 colon = tested on: KM20L2 colon
MDA-MB-231 breast = tested on: MDA-MB-231 breast
RXF 393 renal = tested on: RXF 393 renal
OVCAR-5 ovarian = tested on: OVCAR-5 ovarian
KM12 colon = tested on: KM12 colon
T-47D breast = tested on: T-47D breast
NCI-H226 lung = tested on: NCI-H226 lung
CCRF-CEM leukemia = tested on: CCRF-CEM leukemia
SF-268 CNS = tested on: SF-268 CNS
PC-3 prostate = tested on: PC-3 prostate
UACC-257 melanoma = tested on: UACC-257 melanoma
MDA-N = tested on: MDA-N
SNB-75 CNS = tested on: SNB-75 CNS
MCF7 breast = tested on: MCF7 breast
COLO 205 colon = tested on: COLO 205 colon
M19-MEL melanoma = tested on: M19-MEL melanoma
DLD-1 colon = tested on: DLD-1 colon
SR leukemia = tested on: SR leukemia
SNB-19 CNS = tested on: SNB-19 CNS
HOP-92 NSCLC = tested on: HOP-92 NSCLC
LOX IMVI melanoma = tested on: LOX IMVI melanoma
BT-549 breast = tested on: BT-549 breast
A498 renal = tested on: A498 renal
DMS 114 small cell lung = tested on: DMS 114 small cell lung
HCT-116 colon = tested on: HCT-116 colon
RPMI-8226 leukemia = tested on: RPMI-8226 leukemia
HCC-2998 colon = tested on: HCC-2998 colon
CAKI-1 renal = tested on: CAKI-1 renal
SW-620 colon = tested on: SW-620 colon
UACC-62 melanoma = tested on: UACC-62 melanoma
HT29 colon = tested on: HT29 colon
DU-145 prostate = tested on: DU-145 prostate
HL-60(TB) leukemia = tested on: HL-60(TB) leukemia
XF 498 CNS = tested on: XF 498 CNS
M14 melanoma = tested on: M14 melanoma
LXFL 529 NSCLC = tested on: LXFL 529 NSCLC
HOP-18 NSCLC = tested on: HOP-18 NSCLC
OVCAR-3 ovarian = tested on: OVCAR-3 ovarian
U251 CNS = tested on: U251 CNS
OVCAR-4 ovarian = tested on: OVCAR-4 ovarian
SF-295 CNS = tested on: SF-295 CNS
RXF-631 renal = tested on: RXF-631 renal
MOLT-4 leukemia = tested on: MOLT-4 leukemia
DMS 273 small cell lung = tested on: DMS 273 small cell lung
HCT-15 colon = tested on: HCT-15 colon
NCI-H522 lung = tested on: NCI-H522 lung
UO-31 renal = tested on: UO-31 renal
OVCAR-8 ovarian = tested on: OVCAR-8 ovarian
SF-539 CNS = tested on: SF-539 CNS
ACHN renal = tested on: ACHN renal
SK-MEL-5 melanoma = tested on: SK-MEL-5 melanoma
MALME-3M melanoma = tested on: MALME-3M melanoma
NCI-H460 lung = tested on: NCI-H460 lung
TK-10 renal = tested on: TK-10 renal

## Cn1c(=O)c2nc3sc4c(n3c2n(C)c1=O)C(=O)c1ccccc1C4=O
HOP-62 NSCLC
  TGI: > 53.3 µM
IGROV1 ovarian
  TGI: > 69 µM
SK-MEL-2 melanoma
  TGI: > 75.7 µM
NCI-H23 lung
  TGI: > 75.1 µM
EKVX NSCLC
  TGI: > 100 µM
SNB-78 CNS
  TGI: > 100 µM
A549 NSCLC
  TGI: > 100 µM
SN12C renal
  TGI: > 87.5 µM
NCI/ADR-RES ovarian
  TGI: 87.3 µM
K-562 leukemia
  TGI: > 100 µM
MDA-MB-435
  TGI: > 76 µM
786-0 renal
  TGI: > 78.2 µM
SK-MEL-28 melanoma
  TGI: > 100 µM
HS 578T breast
  TGI: 51.5 µM
SK-OV-3 ovarian
  TGI: > 60.9 µM
KM20L2 colon
  TGI: > 100 µM
MDA-MB-231 breast
  TGI: > 64.6 µM
RXF 393 renal
  TGI: > 55.3 µM
OVCAR-5 ovarian
  TGI: > 100 µM
KM12 colon
  TGI: > 100 µM
T-47D breast
  TGI: 23.6 µM
NCI-H226 lung
  TGI: > 87.2 µM
CCRF-CEM leukemia
  TGI: > 50.3 µM
SF-268 CNS
  TGI: > 100 µM
PC-3 prostate
  TGI: > 76.1 µM
UACC-257 melanoma
  TGI: > 100 µM
MDA-N
  TGI: > 100 µM
SNB-75 CNS
  TGI: 72.1 µM
MCF7 breast
  TGI: > 62 µM
COLO 205 colon
  TGI: > 100 µM
M19-MEL melanoma
  TGI: > 100 µM
DLD-1 colon
  TGI: > 100 µM
SR leukemia
  TGI: > 73 µM
SNB-19 CNS
  TGI: > 66 µM
HOP-92 NSCLC
  TGI: > 42.7 µM
LOX IMVI melanoma
  TGI: > 54.7 µM
BT-549 breast
  TGI: > 61.5 µM
A498 renal
  TGI: > 100 µM
DMS 114 small cell lung
  TGI: > 100 µM
HCT-116 colon
  TGI: > 71.4 µM
RPMI-8226 leukemia
  TGI: > 83.4 µM
HCC-2998 colon
  TGI: > 100 µM
CAKI-1 renal
  TGI: > 100 µM
SW-620 colon
  TGI: > 81.9 µM
UACC-62 melanoma
  TGI: > 100 µM
HT29 colon
  TGI: > 56.2 µM
DU-145 prostate
  TGI: > 100 µM
HL-60(TB) leukemia
  TGI: 45.3 µM
XF 498 CNS
  TGI: > 100 µM
M14 melanoma
  TGI: > 100 µM
LXFL 529 NSCLC
  TGI: > 100 µM
HOP-18 NSCLC
  TGI: > 100 µM
OVCAR-3 ovarian
  TGI: > 50.6 µM
U251 CNS
  TGI: > 57.5 µM
OVCAR-4 ovarian
  TGI: > 81.4 µM
SF-295 CNS
  TGI: > 100 µM
RXF-631 renal
  TGI: > 100 µM
MOLT-4 leukemia
  TGI: 38.3 µM
DMS 273 small cell lung
  TGI: > 100 µM
HCT-15 colon
  TGI: > 86.5 µM
NCI-H522 lung
  TGI: 27.9 µM
UO-31 renal
  TGI: > 76 µM
OVCAR-8 ovarian
  TGI: > 74.2 µM
SF-539 CNS
  TGI: > 74.2 µM
ACHN renal
  TGI: > 54.7 µM
SK-MEL-5 melanoma
  TGI: > 100 µM
MALME-3M melanoma
  TGI: > 100 µM
NCI-H460 lung
  TGI: > 95.4 µM
TK-10 renal
  TGI: > 100 µM
